Experimental data as given in patent publication USRE42014E1, “Pharmaceutical compositions” (Novartis AG, priority 1996, dated 2010).

Legend:
[1] = per 100 ml of a 10% fat emulsion
Protocol: (§1) The solubilization efficacy was determined by filtering the drug loaded fat emulsion through a 0.2 micron Nuclepore filter. Drug compound which is not solubilized was held back by the filter and determined gravimetrically and/or by HPLC measurements.

[2] = Solubilization of active agent in fat emulsions: filtration through 0.2 micron Nuclepore filter, retained drug determined gravimetrically and/or by HPLC
Protocol: as §1
Further sodium oleate was used, instead of POPG.Na.
Propylene glycol was then used to replace a part of the ethanol content.

C/C=C/C[C@@H](C)C(=O)[C@H]1C(=O)N[C@@H](C(C)C)C(=O)N(C)CC(=O)N(C)[C@@H](CC(C)C)C(=O)N[C@@H](C(C)C)C(=O)N(C)[C@@H](CC(C)C)C(=O)N[C@@H](C)C(=O)N[C@H](C)C(=O)N(C)[C@@H](CC(C)C)C(=O)N(C)[C@@H](CC(C)C)C(=O)N(C)[C@@H](C(C)C)C(=O)N1C [PSC 833, [3′-desoxy-3′-oxo-MeBmt]^1-[Val]^2-Ciclosporin]
PSC 833 solubilized by 100 ml of a 10% fat emulsion [1]: up to 2 gram | PSC 833 solubilized ([2]; plain PSC 833 solution in ethanol injected into a fat emulsion, after 30 minutes, no stabiliser): 87% | PSC 833 retained on the filter ([2]; with POPG.Na or sodium oleate, after 5 minutes, determined by HPLC): less than 0.1%
